Test results taken from patent US20100234314A1, “IDARUBICIN FOR THE TREATMENT OF LYMPHOMA IN A DOG” (priority 2007, published 2010).
Like-named read-outs stand apart in the source and are kept apart here.

Assays:
[1] = test system: CL-1 canine lymphoma cell line (T-cell LSA line); test: In vitro anti-proliferation assay (MTS), CL-1 cell line; type: cell-based; details: Canis lupus familiaris; CL-1, T-cell LSA line
From the text: (§1) (2) Ex vivo canine lymphoma nodal tissue. […] (3) In vitro Anti-Proliferation Assay Method.
(§2) (Mean Drug Treatment OD−Mean media blank OD)×100=% Control Proliferation
(§3) (Mean Untreated OD−Mean media blank OD)

[2] = test system: canine lymphoma cell lines; test: Anti-proliferation, canine lymphoma cell lines; type: cell-based; details: summary
From the text: as §1, §2, §3

[3] = test system: ex-vivo derived canine lymphoma cells (nodal tissue); test: In vitro anti-proliferation assay (MTS), ex vivo canine lymphoma nodal tissue; details: for Inhibition of the proliferation of canine lymphoma nodal tissues: summary; for IC50: read-out: Anti-proliferation IC50
From the text: The study utilized an in vitro assay run with ex-vivo derived canine lymphoma cells and with established cell lines maintained over many passages using standard tissue culture techniques. Nodal tissues were obtained from canine lymphoma patients at the MSU Veterinary Clinic.
(2) Ex vivo canine lymphoma nodal tissue. Malignant lymph nodes were excised by veterinary staff at Michigan State University (MSU) Veterinary College, placed into transport media (Advanced RPMI 1640 complete medium supplemented with 10% Fetal Bovine Serum (FBS), 100 U/mL penicillin, 100 ug/mL streptomycin and 0.25 ug/mL Amphotercin B (Invitrogen/Gibco®). Nodes were processed within 24 hours of removal by mincing into tiny pieces and passing through a tissue sieve. Cell suspensions were spun at 200×g, supernatant was removed, and the cell pellet was resuspended in NH4Cl (0.15M) for 10 minutes at room temperature. The cell suspension was pelleted by centrifugation; the NH4Cl was removed and washed once with Hanks Balanced Salt Solution (HBSS), followed by re-suspension in Proliferation Medium (Advanced RPMI complete, 1% FBS, 50 nM 2-Mercaptoethanol, 100 U/mL penicillin, 100 ug/mL streptomycin and 0.25 ug/mL Amphotercin B). The cell suspension was then passed through a 100 μm nylon cell strainer (BD-Falcon) and counted using a hemacytometer. Cells were cultured in either Proliferation Medium alone, Proliferation Medium supplemented with 0.005% Pansorbin® (Heat inactivated, formalin-fixed Staphylococcus Aureus cells (SAC), Calbiochem), and 10 ng/mL canine IL-2 (R&D Systems), or Proliferation Medium supplemented with 125 ng/mL concavalin A (Sigma) and 125 ng/mL lipopolysaccamide (LPS; Calbiochem). (3) In vitro Anti-Proliferation Assay Method. Cells cultured in medium described above were plated in 96-well Costar plates (Corning) at a density of 1×10^3 cells/well (lymphoma cell lines) or 2×10^5 cells/well (lymph node cells) and exposed to various concentrations of test compounds for up to 5 days at 37° C. in a humidified incubator with 5% CO2. Effects on proliferation were determined using the CellTiter 96® Aqueous Non-Radioactive Cell Proliferation Assay (Promega) according to manufacturer's instructions. In general, proliferation was indirectly measured using a soluble tetrazolium salt (MTS) and an electron coupling agent. MTS bioreduction into a formazan product soluble in tissue culture medium was monitored by absorbance at 490 nm on a Spectramax plate reader using Softmax Pro 4.6 software (Molecular Devices). […] (4) Data Analysis: For nodal tissue, data were handled in the following manner through Prism 4.0 (Graphpad Software). Mean values from raw optical density values (OD) were calculated for the Un-stimulated, Simulated and all Drug Treatment (triplicates) and used in the following formula:
(Mean Drug Treatment OD−Mean Un-stim OD)×100=% Control Proliferation
(Mean Stim OD−Mean Un-stim OD)
Once calculated, these values for each drug concentration (or standard) were graphed and an IC50 calculated by a point to point analysis. Percent control values were not allowed to exceed 100% or fall below 0% for analysis of IC50 values.

[4] = test system: 3132 canine lymphoma cell line (B-cell LSA line); test: In vitro anti-proliferation assay (MTS), 3132 cell line; type: cell-based; details: Canis lupus familiaris; 3132, B-cell LSA line
From the text: as §1, §2, §3

[5] = Oral bioavailability in dogs, effect of feeding; type: in vivo; details: dog
[6] = MSU LN 1, chemotherapy resistant B-cell LSA, stimulant SAC + IL-2
[7] = MSU LN 1 ID618801, chemotherapy resistant B-cell LSA, stimulant LPS + ConA
[8] = MSU LN 6, chemotherapy resistant T-cell LSA, stimulant SAC + IL-2
[9] = MSU LN 6 ID401557, chemotherapy resistant T-cell LSA, stimulant LPS + ConA
[10] = MSU LN 7 ID663780, chemotherapy resistant T-cell LSA, stimulant LPS + ConA
[11] = MSU LN 8, de novo T-cell lymphoma, stimulant SAC + IL-2
[12] = MSU LN 8 ID668165, de novo T-cell lymphoma, stimulant LPS + ConA
[13] = MSU LN 10 ID401979, chemotherapy resistant B-cell LSA, stimulant LPS + ConA

Compound	IC50 [1]	Inhibition of the proliferation of canine lymphoma cell lines [2]	Inhibition of the proliferation of canine lymphoma nodal tissues [3]	IC50 [3, 6]	IC50 [3, 7]	IC50 [3, 8]	IC50 [3, 9]	IC50 [3, 10]	IC50 [3, 11]	IC50 [3, 12]	IC50 [3, 13]	IC50 [4]	Oral bioavailability, effect of feeding [5]	Potency and cytotoxicity compared with doxorubicin ([3]; all nodal and cell line lymphomas regardless of B or T-cell lineage)	Inhibition of proliferation compared with doxorubicin ([3]; all nodal tissue from dogs diagnosed with chemotherapy resistant lymphomas)	IC50 ([3]; MSU LN 11 ID671795, de novo B-cell LSA, stimulant LPS + ConA)	IC50 ([3]; MSU LN 14 ID403527, de novo T-cell LSA, stimulant Con A)
COc1cccc2c1C(=O)c1c(O)c3c(c(O)c1C2=O)C[C@@](O)(C(=O)CO)C[C@@H]3O[C@H]1C[C@H](N)[C@H](O)[C@H](C)O1 [Doxorubicin, doxorubicin]	4.3 nM	inhibited	dose dependent inhibition	11 nM	55 nM	13 nM	28 nM	10 nM	7 nM	9 nM	> 100 nM						
CC(=O)[C@]1(O)Cc2c(O)c3c(c(O)c2[C@@H](O[C@H]2C[C@H](N)[C@H](O)[C@H](C)O2)C1)C(=O)c1ccccc1C3=O [Idarubicin, idarubicin]	1.9 nM	inhibited	dose dependent inhibition	7.5 nM	7.5 nM	2.5 nM	3 nM	2.5 nM	3 nM	4 nM	56 nM	2.7 nM	not adversely affected by feeding	more potent and cytotoxic than doxorubicin	more effective	4 nM	11 nM
